In the NIST ThermoML archive (doi:10.1021/je8007759):

Assay: xn = mol fraction of the nth substance listed

CC1CCC(=O)O1 (stereo not given) [γ-valerolactone] + O=C=O
Fluid (supercritical or subcritical phases), Pycnometric method
Conditions | mass density [kg/m3]
327.9 K, 12360 kPa, x1 = 0.1 | 876
327.9 K, 12500 kPa, x1 = 0.05 | 784
327.9 K, 12510 kPa, x1 = 0.025 | 726
327.9 K, 12630 kPa, x1 = 0.01 | 657
327.9 K, 12640 kPa, x1 = 0.15 | 937
327.9 K, 12700 kPa, x1 = 0.05 | 790
327.9 K, 12720 kPa, x1 = 0.025 | 735
327.9 K, 12740 kPa, x1 = 0.1 | 882
327.9 K, 12920 kPa, x1 = 0.05 | 795
327.9 K, 13010 kPa, x1 = 0.025 | 745
327.9 K, 13120 kPa, x1 = 0.15 | 941
327.9 K, 13130 kPa, x1 = 0.1 | 888
327.9 K, 13160 kPa, x1 = 0.05 | 800
327.9 K, 13320 kPa, x1 = 0.025 | 755
327.9 K, 13370 kPa, x1 = 0.1 | 891
327.9 K, 13410 kPa, x1 = 0.05 | 805
327.9 K, 13520 kPa, x1 = 0.15 | 943
327.9 K, 13640 kPa, x1 = 0.1 | 894
327.9 K, 13660 kPa, x1 = 0.025 | 765
327.9 K, 13700 kPa, x1 = 0.05 | 811
327.9 K, 13980 kPa, x1 = 0.15 | 947
327.9 K, 14010 kPa, x1 = 0.05 | 817
327.9 K, 14060 kPa, x1 = 0.025 | 776
327.9 K, 14180 kPa, x1 = 0.1 | 900
327.9 K, 14330 kPa, x1 = 0.05 | 823
327.9 K, 14440 kPa, x1 = 0.15 | 949
327.9 K, 14700 kPa, x1 = 0.05 | 829
327.9 K, 14780 kPa, x1 = 0.1 | 907
327.9 K, 14900 kPa, x1 = 0.15 | 952
327.9 K, 15080 kPa, x1 = 0.05 | 835
327.9 K, 15410 kPa, x1 = 0.1 | 913
327.9 K, 15460 kPa, x1 = 0.15 | 956
327.9 K, 15940 kPa, x1 = 0.15 | 959
327.9 K, 16050 kPa, x1 = 0.1 | 919
327.9 K, 16480 kPa, x1 = 0.15 | 962
327.9 K, 17080 kPa, x1 = 0.15 | 965
332.8 K, 12270 kPa, x1 = 0.025 | 651
332.8 K, 12280 kPa, x1 = 0.025 | 652
332.8 K, 12340 kPa, x1 = 0.025 | 655
332.8 K, 12390 kPa, x1 = 0.025 | 659
332.8 K, 12460 kPa, x1 = 0.025 | 663
332.8 K, 12530 kPa, x1 = 0.025 | 667
332.8 K, 12600 kPa, x1 = 0.025 | 671
332.8 K, 12680 kPa, x1 = 0.025 | 675
332.8 K, 12840 kPa, x1 = 0.025 | 683
332.8 K, 12980 kPa, x1 = 0.025 | 690
332.8 K, 13130 kPa, x1 = 0.025 | 696
332.8 K, 13420 kPa, x1 = 0.025 | 710
332.8 K, 13670 kPa, x1 = 0.025 | 718
332.8 K, 13940 kPa, x1 = 0.025 | 728
332.8 K, 14270 kPa, x1 = 0.025 | 738
332.8 K, 14540 kPa, x1 = 0.025 | 744
332.8 K, 14820 kPa, x1 = 0.025 | 752
332.8 K, 15190 kPa, x1 = 0.025 | 761
332.9 K, 11320 kPa, x1 = 0.01 | 487
332.9 K, 11330 kPa, x1 = 0.01 | 488
332.9 K, 11340 kPa, x1 = 0.01 | 490
332.9 K, 11350 kPa, x1 = 0.01 | 491
332.9 K, 11370 kPa, x1 = 0.01 | 493
332.9 K, 11380 kPa, x1 = 0.01 | 494
332.9 K, 11400 kPa, x1 = 0.01 | 496
332.9 K, 11410 kPa, x1 = 0.01 | 497
332.9 K, 11420 kPa, x1 = 0.01 | 498
332.9 K, 11440 kPa, x1 = 0.01 | 500
332.9 K, 11450 kPa, x1 = 0.01 | 501
332.9 K, 11470 kPa, x1 = 0.01 | 503
332.9 K, 11490 kPa, x1 = 0.01 | 506
332.9 K, 11520 kPa, x1 = 0.01 | 509
332.9 K, 11560 kPa, x1 = 0.01 | 511
332.9 K, 11600 kPa, x1 = 0.01 | 515
332.9 K, 11630 kPa, x1 = 0.01 | 518
332.9 K, 11660 kPa, x1 = 0.01 | 521
332.9 K, 11700 kPa, x1 = 0.01 | 524
332.9 K, 11730 kPa, x1 = 0.01 | 527
332.9 K, 11770 kPa, x1 = 0.01 | 531
332.9 K, 11810 kPa, x1 = 0.01 | 534
332.9 K, 11850 kPa, x1 = 0.01 | 537
332.9 K, 11890 kPa, x1 = 0.01 | 540
332.9 K, 11940 kPa, x1 = 0.01 | 543
332.9 K, 11990 kPa, x1 = 0.01 | 547
332.9 K, 12040 kPa, x1 = 0.01 | 551
332.9 K, 12090 kPa, x1 = 0.01 | 554
332.9 K, 12140 kPa, x1 = 0.01 | 558
332.9 K, 12190 kPa, x1 = 0.01 | 561
332.9 K, 12240 kPa, x1 = 0.01 | 565
332.9 K, 12290 kPa, x1 = 0.01 | 569
332.9 K, 12340 kPa, x1 = 0.01 | 573
332.9 K, 12390 kPa, x1 = 0.01 | 576
332.9 K, 12460 kPa, x1 = 0.01 | 580
332.9 K, 12530 kPa, x1 = 0.01 | 584
332.9 K, 12590 kPa, x1 = 0.01 | 588
332.9 K, 12600 kPa, x1 = 0.15 | 914
332.9 K, 12670 kPa, x1 = 0.01 | 592
332.9 K, 12750 kPa, x1 = 0.15 | 916
332.9 K, 12800 kPa, x1 = 0.01 | 600
332.9 K, 12820 kPa, x1 = 0.05 | 743
332.9 K, 12860 kPa, x1 = 0.05 | 743
332.9 K, 12920 kPa, x1 = 0.05 | 746
332.9 K, 12950 kPa, x1 = 0.01 | 608
332.9 K, 13060 kPa, x1 = 0.05 | 751
332.9 K, 13070 kPa, x1 = 0.1 | 854
332.9 K, 13090 kPa, x1 = 0.15 | 919
332.9 K, 13110 kPa, x1 = 0.01 | 617
332.9 K, 13170 kPa, x1 = 0.1 | 856
332.9 K, 13220 kPa, x1 = 0.05 | 755
332.9 K, 13270 kPa, x1 = 0.1 | 858
332.9 K, 13330 kPa, x1 = 0.01 | 628
332.9 K, 13380 kPa, x1 = 0.05 | 760
332.9 K, 13420 kPa, x1 = 0.1 | 861
332.9 K, 13440 kPa, x1 = 0.15 | 922
332.9 K, 13550 kPa, x1 = 0.05 | 766
332.9 K, 13550 kPa, x1 = 0.1 | 863
332.9 K, 13730 kPa, x1 = 0.1 | 865
332.9 K, 13730 kPa, x1 = 0.15 | 925
332.9 K, 13760 kPa, x1 = 0.05 | 770
332.9 K, 13890 kPa, x1 = 0.1 | 867
332.9 K, 13960 kPa, x1 = 0.05 | 776
332.9 K, 14060 kPa, x1 = 0.1 | 870
332.9 K, 14160 kPa, x1 = 0.05 | 781
332.9 K, 14250 kPa, x1 = 0.15 | 928
332.9 K, 14260 kPa, x1 = 0.1 | 873
332.9 K, 14400 kPa, x1 = 0.05 | 786
332.9 K, 14470 kPa, x1 = 0.1 | 876
332.9 K, 14620 kPa, x1 = 0.15 | 931
332.9 K, 14680 kPa, x1 = 0.05 | 792
332.9 K, 14680 kPa, x1 = 0.1 | 878
332.9 K, 14960 kPa, x1 = 0.05 | 798
332.9 K, 15000 kPa, x1 = 0.15 | 933
332.9 K, 15140 kPa, x1 = 0.1 | 884
332.9 K, 15260 kPa, x1 = 0.05 | 803
332.9 K, 15420 kPa, x1 = 0.1 | 888
332.9 K, 15420 kPa, x1 = 0.15 | 937
332.9 K, 15550 kPa, x1 = 0.05 | 809
332.9 K, 15660 kPa, x1 = 0.1 | 891
332.9 K, 15840 kPa, x1 = 0.15 | 940
332.9 K, 15950 kPa, x1 = 0.1 | 894
332.9 K, 16260 kPa, x1 = 0.1 | 897
332.9 K, 16380 kPa, x1 = 0.15 | 943
332.9 K, 16560 kPa, x1 = 0.1 | 900
332.9 K, 16870 kPa, x1 = 0.1 | 904
332.9 K, 17190 kPa, x1 = 0.1 | 907
337.9 K, 14310 kPa, x1 = 0.1 | 841
337.9 K, 14470 kPa, x1 = 0.1 | 844
337.9 K, 14580 kPa, x1 = 0.1 | 846
337.9 K, 14740 kPa, x1 = 0.1 | 848
337.9 K, 14900 kPa, x1 = 0.1 | 851
337.9 K, 15020 kPa, x1 = 0.1 | 852
337.9 K, 15200 kPa, x1 = 0.1 | 855
337.9 K, 15360 kPa, x1 = 0.1 | 857
337.9 K, 15580 kPa, x1 = 0.1 | 859
337.9 K, 15740 kPa, x1 = 0.1 | 862
337.9 K, 15940 kPa, x1 = 0.1 | 864
337.9 K, 16190 kPa, x1 = 0.1 | 868
337.9 K, 16420 kPa, x1 = 0.1 | 871
337.9 K, 16660 kPa, x1 = 0.1 | 874
337.9 K, 16920 kPa, x1 = 0.1 | 877
337.9 K, 17400 kPa, x1 = 0.1 | 883

mass density [kg/m3], high pressure variable cell
Conditions | 327.9 K | 332.8 K | 332.9 K
Gas, x1 = 0.01 | 496 | – | 486
Gas, x1 = 0.025 | 660 | 649 | –
Gas, x1 = 0.05 | 753 | – | 742
Liquid, x1 = 0.1 | 863 | – | 851
Liquid, x1 = 0.15 | 925 | – | 913

Liquid, high pressure variable cell
Conditions | Critical density [kg/m3]
x1 = 0.025 | 679
x1 = 0.05 | 774
x1 = 0.1 | 837
